Laboratory results reported in US20250257146A1, “ANTI-TROP2 ANTIBODY-DRUG CONJUGATE” (DAIICHI SANKYO COMPANY, LIMITED, priority 2013, published 2025).

Assays:
[1] = Self-degradation of released drug derivative with aminal structure; assay type: physicochemical
various cancer cells = conditions: against various cancer cells; cited from earlier work
human tumor = human tumor subcutaneously transplanted mouse model; cited from earlier work
topoisomerase I = target: T1, topoisomerase I (Homo sapiens, UniProt P11387); conditions: compared with SN-38 and topotecan; cited from earlier work
T1 sequence (P11387 1-765): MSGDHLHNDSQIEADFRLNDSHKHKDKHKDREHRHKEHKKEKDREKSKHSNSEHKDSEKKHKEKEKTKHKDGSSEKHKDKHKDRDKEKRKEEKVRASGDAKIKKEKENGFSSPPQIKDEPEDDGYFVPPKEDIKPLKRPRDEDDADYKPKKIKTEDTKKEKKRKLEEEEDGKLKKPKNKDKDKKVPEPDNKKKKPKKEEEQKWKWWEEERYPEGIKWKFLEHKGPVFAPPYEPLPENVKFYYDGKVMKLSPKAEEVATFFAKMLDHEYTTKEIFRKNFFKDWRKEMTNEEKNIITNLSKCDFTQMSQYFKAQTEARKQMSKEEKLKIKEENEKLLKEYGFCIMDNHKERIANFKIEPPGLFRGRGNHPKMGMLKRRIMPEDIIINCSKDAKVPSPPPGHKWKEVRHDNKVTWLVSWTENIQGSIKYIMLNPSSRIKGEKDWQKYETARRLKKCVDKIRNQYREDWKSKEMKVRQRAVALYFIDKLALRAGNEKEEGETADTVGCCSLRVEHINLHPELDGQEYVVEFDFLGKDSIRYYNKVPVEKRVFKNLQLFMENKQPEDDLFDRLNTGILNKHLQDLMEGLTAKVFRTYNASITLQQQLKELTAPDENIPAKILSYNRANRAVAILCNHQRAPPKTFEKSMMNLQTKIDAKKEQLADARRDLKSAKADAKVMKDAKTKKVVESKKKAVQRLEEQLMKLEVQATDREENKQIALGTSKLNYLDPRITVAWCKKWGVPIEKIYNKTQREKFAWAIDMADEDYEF

[2] = target: T2, CHOK1 cells expressing human TROP2 (Homo sapiens, UniProt P09758); experiment: FACS analysis of TINA1 antibody on TROP2-overexpressing cells; assay type: cell-based
T2 construct: expressed in transfected cells; host or cells: CHOK1
T2 sequence (P09758 27-323): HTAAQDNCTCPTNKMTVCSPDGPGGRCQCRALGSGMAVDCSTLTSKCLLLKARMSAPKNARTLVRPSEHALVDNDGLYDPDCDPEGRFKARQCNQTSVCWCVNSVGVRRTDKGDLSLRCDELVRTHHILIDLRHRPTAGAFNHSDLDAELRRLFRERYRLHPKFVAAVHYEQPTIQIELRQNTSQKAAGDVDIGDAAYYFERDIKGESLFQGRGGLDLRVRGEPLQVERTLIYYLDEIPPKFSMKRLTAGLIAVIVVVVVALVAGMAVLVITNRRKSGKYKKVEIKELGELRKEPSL
Description: Because the antigen of the TINA1 antibody was predicted to be TROP2 from the band pattern, overexpression analysis by gene transfer of cDNA was conducted without mass spectrometry. […] Similar FACS analysis was conducted using a lung cancer cell line PC14, a lung cancer cell line NCI-H322, a lung cancer cell line NCI-H2122, a lung cancer cell line LCAM1, a lung cancer cell line LC2/ad, a pancreatic cancer cell line MIAPaCa2, a pancreatic cancer cell line PK-1, a prostate cancer cell line PC3, a colorectal cancer cell line HCT116, a melanoma cell line A375, an ovarian cancer cell line SKOV3, a hematopoietic tumor cell line RPMI8226, a hematopoietic tumor cell line K562, PBMC (human peripheral blood mononuclear cells), and human platelet. All of the examined lung cancer cell lines were TROP2-positive, and PC3, PK1, and SKOV3 were positive as the cell lines except for the lung cancer ones. On the other hand, all of the normal blood cells were negative.

NCI-H322 cells = experiment: Internalization activity and immunotoxin activity using DT3C; assay type: cell-based, human
From the text: 4-1) Antibody internalization activity evaluation system A recombinant fusion protein DT3C was produced for the purpose of measuring internalization activity and immunotoxin activity of an antibody. This DT3C is a protein having a catalytic domain of diphtheria toxin (DT) and three antibody-binding regions of protein G. DT3C specifically binds to an Fc moiety of an antibody, is stable, and induces cell death by inhibiting protein synthesis when taken up into cells. By use of this system, the internalization effect of antibody and the cytocidal effect thereof by immunotoxin can be observed at the same time (Yamaguchi, M., Hamada, H., et al., Biochemical and Biophysical Research Communications 454 (2014) 600-603).
4 μg/mL of DT3C was added at 25 μL/well to a 96-well plate, further the culture supernatants of 11 hybridomas obtained by the method of Example 1 or a method equivalent thereto were each added at 25 μL/well to the plate, and the plate was incubated at room temperature for 30 minutes. […] After incubation for 1 hour in a CO2 incubator of 37° C., the number of live cells was measured using a microplate reader (OD450 to OD640, infinite 200, Tecan Trading AG).
Each diluted solution of DT3C (0, 0.004, 0.04, 0.4, 4, or 40 μg/mL) was added at 25 μL/well to a 96-well plate, then each antibody (40 μg/mL) was added at 25 μL/well to the plate, and the plate was incubated at room temperature for 30 minutes. […] After incubation for 1 hour in a CO2 incubator of 37° C., the number of live cells was measured using a plate reader (OD450 to OD640).
Anti-TROP2 antibodies TINA1 (immunogen: lung cancer line NCI-H322), KCL7A3 and KCL2D6 (immunogen: pancreatic cancer cell line KCL-MOH1), Pr1E11 and Pr8H10 (immunogen: prostate cancer cell line Pc-1), and NY16 and NY17 (immunogen: pancreatic cancer cell line PK-1) obtained by the method of Example 1 or a method equivalent thereto, and commercially available 77220 (R&D Systems Inc.) were evaluated for their internalization activity and immunotoxin activity in the same manner as in Example 4-3).

## CCC1(O)C(=O)OCc2c1cc1n(c2=O)Cc2c-1nc1cc(F)c(C)c3c1c2C(NC(=O)COCN)CC3 (centres unmarked) [NH2—CH2—O—CH2—C(═O)—(NH-DX)]
[1]
  stability of the aminal structure (self-degradation to HO—CH2—C(═O)—(NH-DX)): unstable

## CC[C@@]1(O)C(=O)OCc2c1cc1n(c2=O)Cc2c-1nc1cc(F)c(C)c3c1c2[C@@H](N)CC3 [exatecan, (1S,9S)-1-amino-9-ethyl-5-fluoro-2,3-dihydro-9-hydroxy-4-methyl-1H,12H-benzo[de]pyrano[3′,4′:6,7]indolizino[1,2-b]quinolin-10,13(9H,15H)-dione]
Various cancer cells
  in vitro cytocidal activity: higher in vitro cytocidal activity
Human tumor
  antitumor effect: potent antitumor effect
Topoisomerase I
  inhibitory activity on topoisomerase I: higher than SN-38

B1: TINA1: antibody produced by the TROP2 hybridoma TINA1; mouse anti-TROP2 monoclonal antibody (antibody, listed as Mus musculus, V domains shown)
VH: QIQLVQSGPELKKPGETVRISCKASGYTFTTAGMQWVQKMPGKGLKWIGWINTHSGVPKYAEDFKGRFAFSLETSASTAYLQISNLKNEDTTTYFCARSGFGSSYWYFDVWGAGTAVTVSS
VL: DIVMTQSHKFMSTSVGDRVSITCKASQDVSTAVAWYQQKPGQSPKLLIYSASYRYTGVPDRFTGSGSGTAFTFTISSVQAEDLAVYYCQQHYITPLTFGAGTKLELKRA
[2]
  FACS response: strong positive response
NCI-H322 cells; among the 8 anti-TROP2 antibodies, as Example 4-3, FIG. 12
  internalization activity and immunotoxin activity: strongest activity
NCI-H322 cells; antibody 40 μg/mL + DT3C 0-40 μg/mL, among antibodies against CD59, CD71, EGFR, EpCAM, TROP2, FIG. 11
  internalization activity and immunotoxin activity: strongest internalization activity and immunotoxin activity
NCI-H322 cells; hybridoma culture supernatant + DT3C 4 μg/mL, NCI-H322 cells, 3 days, FIG. 10
  internalization activity and immunotoxin activity: strong internalization activity and immunotoxin activity
